Columns and labels:
[1] = acute oral toxicity in mice; assay type: in vivo, ICR mice; details: for toxicity: oral, mouse, single dose 5,000 mg/kg
Method: Toxicity of Orally Administered tannin, gallic acid or ellagic acid
36 seven-week-old, specific pathogen-free ICR […] female mice each weighing about 25 to 29 g and 18 male mice each weighing about 34 to 38 9, were kept under an environment of 22±1° C., 55±5% relative humidity and 12L/12D photoperiod. Fodder (Cheiljedang Co., mouse and rat fodder) and water were sterilized and fed to the mice.
Tannin, gallic acid or ellagic acid purchased from Aldrich-Sigma Chemical Co. (St. Louis, Mo., U.S.A) was dissolved in 0.5% Tween 80 to a concentration of 500 mg/ml, and the solution was orally administered to the mice in an amount of 0.2 ml per 20 g of mouse body weight. […] Further, on the 10th day, the mice were sacrificed and the internal organs were visually examined.

[2] = plasma cholesterol, HDL-cholesterol and neutral lipid levels in rats fed a high-cholesterol diet; assay type: in vivo, Sprague-Dawley rats; details: six weeks; for HDL-C/Total-C ratio higher than in the control group / neutral lipid content lower than in the Control group / total plasma cholesterol level lower than in the Control group: 0.1% in diet; for HDL-C / Total-C / HDL-C (HDL-cholesterol) / TG (triglyceride) / Total-C (total cholesterol): 1% cholesterol plus 0.1% compound in diet; for HDL-C / Total-C: Control 28; for HDL-C (HDL-cholesterol): Control 38 ± 2; for TG (triglyceride): Control 98 ± 5; for Total-C (total cholesterol): Control 135 ± 6
Excerpt: Effect of Tannin, Gallic acid or Ellagic acid on Plasma Cholesterol, HDL-Cholesterol and Neutral Lipid Levels
(Step 1) Administration of tannin or gallic acid to rats
30 three-week-old white Sprague-Dawley rats (Taihan laboratory animal center, Korea), each weighing about 90 to 110 g, were evenly divided into three dietary groups by a randomized block design. The rats of the three groups were fed with three different high-cholesterol diets, i.e., AIN-76 laboratory animal diet (ICN Biochemicals, Cleveland, Ohio, U.S.A.) containing 1% cholesterol (Control group), 1% cholesterol plus 0.1% tannin group (tannin group) and 1% cholesterol plus 0.1% gallic acid, respectively.
The rats were allowed to feed freely on the specified diet together with water for six weeks, the ingestion amount was recorded daily and the rats were weighed every 7 days, and then the record was analyzed.
(Step 2) Determination of total cholesterol, HDL-cholesterol and neutral lipid content in blood
The effects of administering tannin or gallic acid to rats on the plasma cholesterol and neutral lipid contents were determined as follows.
The rats of the three dietary groups obtained in Step 1 were sacrificed and blood samples were taken therefrom. The blood was allowed to stand for 2 hours and centrifuged at 3,000 rpm for 15 minutes and the supernatant was separated and stored in a deep freezer before use. The chemical analysis of blood was carried out by employing a blood chemical analyzer (CIBA Corning 550 Express, USA) to determine the changes in total cholesterol, HDL-cholesterol and triglyceride levels.

[3] = chemical analysis of blood of rabbits fed a high-cholesterol diet; assay type: in vivo, New Zealand White rabbits; details: for TG (triglyceride): Control 56 ± 38; for TC (total cholesterol): Control 1143 ± 260
Method: Effect of Tannin, Gallic acid or Ellagic acid in an Animal
(Step 1) Administration of tannin, gallic acid or ellagic acid to rabbits
(§1) 30 three-month-old male New Zealand White rabbits (Yeonam Horticulture and Animal Husbandry College, Korea), each weighing about 2.5 to 2.6 kg, were raised under a condition of temperature 20+2° C., relative humidity 55±5%, and photoperiod 12L/12D. The rabbits were divided into 5 groups and 5 groups of rabbits were fed with 5 different diets, i.e., RC4 diet (Oriental Yeast Co., Japan) containing 1% cholesterol (Control group, 1); 1% cholesterol plus 1 mg/kg Lovastatin® (Merck, U.S.A.) (Lovastatin® group, 2); 1% cholesterol plus 0.1% tannin (3); 1% cholesterol plus 0.1% gallic acid (4); and 1% cholesterol plus 0.1% ellagic acid (5), respectively. RC4 diet comprises 7.6% moisture, 22.8% crude protein, 2.8% crude fat, 8.8% crude ash, 14.4% crude cellulose and 43.6% soluble nitrogen-free substances. Tannin, gallic acid and ellagic acid were purchased from Sigma Chemical Co. (St. Louis, Mo.).
(§2) The rabbits were fed for 6 weeks while being allowed free access to the diets and water.
(Step 2) Chemical Analysis of Blood
After six weeks, the rabbits were anesthetized with an intramuscular injection of ketamine (50 mg/kg) in the femoral region and sacrificed. A blood sample was taken from the heart of each rabbit, allowed to stand for 2 hours and centrifuged at 3,000 rpm for 15 minutes and the supernatant serum was separated and stored in a freezer before use.
The chemical analysis of blood was carried out by employing a blood chemical analyzer (CIBA Corning 550 Express, USA) to determine the changes in GOT, GPT, γGTP, total cholesterol, HDL-cholesterol and triglyceride levels.

[4] = tested on: main artery (arterial endothelium); assay: analysis for fatty streak in the main artery of rabbits; assay type: in vivo, New Zealand White rabbits; details: for Fatty streak (proportion of stained region to total arterial area): 1% cholesterol diet plus 0.1% compound (Lovastatin 1 mg/kg), Control 35 ± 14; for Fatty streak (proportion of stained region to total arterial area) / plaque formation in the endothelium of the main artery: 6 weeks; for deposition of macrophages on the arterial endothelium: blood cholesterol level high
Method: as §1, §2
(Step 3) Analysis for fatty streak in the main artery
The chest of each of the rabbits sacrificed in Step 2 was incised. The downward portion of the main artery from the site 1 cm above the aortic valve was cut out in a length of about 5 cm and the fat surrounding the main artery was removed. The main artery was incised in the middle along the longitudinal axis and pinned to a dish. The moist artery was photographed and, then, the staining of fatty streaks was carried out in accordance with the method of Esper, E., et al. (J. Lab. Clin. Med., 121, 103-110 (1993)) as follows.
A part of the incised main artery was washed three times with anhydrous propylene glycol for 2 min. and stained for 30 min. with a saturated solution of Oil Red O (ORO, Sigma Co.) dissolved in propylene glycol. Thereafter, the artery was washed twice with 85% propylene glycol for 3 min. to remove remaining staining solution and, then washed with physiological saline. The artery was photographed and the photograph was traced. The area of stained region (fatty streak region) was determined with an image analyzer (LEICA, Q-600, Germany) and its proportion (%) to the total arterial area was calculated.
FIGS. 1A, 1B and 1C show the arteries of the rabbits administered with 1% cholesterol (Control group); 1% cholesterol plus 1 mg/kg Lovastatin® (Lovastatin® group); 1% cholesterol plus 0.1% ellagic acid, respectively.

[5] = rabbits, 1% cholesterol diet plus 0.1% compound (Lovastatin 1 mg/kg), 6 weeks

Row | Compound | toxicity [1] | HDL-C/Total-C ratio higher than in the control group [2] [%] | neutral lipid content lower than in the Control group [2] [%] | total plasma cholesterol level lower than in the Control group [2] [%] | HDL-C / Total-C [2] [%] | HDL-C (HDL-cholesterol) [2] [mg/dL] | TG (triglyceride) [2] [mg/dL] | Total-C (total cholesterol) [2] [mg/dL] | TG (triglyceride) [3, 5] [mg/dL] | TC (total cholesterol) [3, 5] [mg/dL] | lipid metabolism and liver function ([3]; rabbits, 6 weeks) | Fatty streak (proportion of stained region to total arterial area) [4] [%] | plaque formation in the endothelium of the main artery [4] | deposition of macrophages on the arterial endothelium [4] | also measured
1 | O=C(O)c1cc(O)c(O)c(O)c1 [Gallic acid, gallic acid] | no toxicity | 21 | 22 | 31 | 34 | 32 ± 3 | 77 ± 4 | 93 ± 5 | 27 ± 11 | 1150 ± 100 | can improve | 10 ± 2 | inhibit | strongly inhibit | weight loss ([1]; oral 5,000 mg/kg, 10 day test period): no weight loss; pathological abnormality at autopsy ([1]; oral 5,000 mg/kg, day 10): had not developed any pathological abnormality; survival ([1]; oral 5,000 mg/kg, day 10): All the mice were alive at day 10; effect on the liver function (adverse) ([3]; general statement): do not adversely affect on the liver function; γGTP ([3]; rabbits, 1% cholesterol diet plus 0.1% compound (Lovastatin 1 mg/kg), 6 weeks, Control 4.2 ± 0.9): 7.0 ± 2 IU/l; GPT ([3]; rabbits, 1% cholesterol diet plus 0.1% compound (Lovastatin 1 mg/kg), 6 weeks, Control 65 ± 9): 20 ± 10 IU/l; GOT ([3]; rabbits, 1% cholesterol diet plus 0.1% compound (Lovastatin 1 mg/kg), 6 weeks, Control 77 ± 8): 60 ± 9 IU/l
2 | tannin | no toxicity | 54 | 21 | 35 | 43 | 37 ± 2 | 76 ± 3 | 88 ± 4 | 25 ± 10 | 1120 ± 211 | can improve | 13 ± 2 | inhibit | strongly inhibit | effect on the liver function (adverse) ([3]; rabbit, in vivo): do not adversely affect on the liver function
